Measured values reported in patent US20040101488A1, “Method for the prevention of septic shock lethality using curcumin” (priority 2000, published 2004).
“Also recorded” adds a separate entry of the source.

How the values were obtained:
[1] = system: neutrophils in the liver of LPS injected mice; test: Liver histology, chloroacetate esterase staining of neutrophils after LPS challenge; details: 24 hrs after LPS challenge, liver sections, FIG. 2
[2] = system: mice injected with lipopolysaccharide (septic shock); test: LPS-induced septic shock in mice: survival and symptoms; type: in vivo; details: none prior
[3] = system: adhesion of human peripheral neutrophils to endothelial cells from human umbilical cord; test: Cell adherence assay: neutrophil adhesion to endothelial monolayers; type: cell-based
Experimental: Endothelial cells grown to confluency in 96 well plates were incubated without or with indicated concentrations of curcumin for 1 hr followed by induction without (hatched bars) or with (closed bars) LPS (1 μg/ml) for 6 hrs. The cells were then incubated with human peripheral neutrophils for 1 hr. The amount of neutrophils adhering to the endothelial cell monolayers was measured by a colorimetric assay as described in Example 6.
Primary endothelial cells were isolated from human umbilical cord. For isolation of the cells the umbilical cord vein was canulated and then perfused with phosphate buffer saline to remove blood and then incubated with 0.125% trypsin for 15 mins at 37° C. The vein was then perfused with PBS and the cells were collected. […] The viability of endothelial cells in culture was checked by trypan blue exclusion test and the purity was determined by E-selectin staining. […]
Adhesion of neutrophils to endothelial monolayers was assayed as described previously (Dobrina A et al., J. Clin. Invest., 88:20-26 1991). […] The absorbance was determined at […] using an automated microplate reader (Anthos Labtech HT2, Austria).

[4] = system: mice injected with lipopolysaccharide (septic shock); test: LPS-induced septic shock in mice: survival and symptoms; type: in vivo; details: for Percentage Survival: prior to and after LPS (40 mg/kg i.p.), mice
Experimental: In septic shock experiments, age-and body weight-matched (25-30 g) female swiss albino mice were injected intraperitoneally with 40 mg/kg LPS solubilised in 200 μl sterile 0.9% saline. Control animals received equal volumes of saline. For groups that were treated with curcumin, the mice were fed orally with 20 mg/kg to 60 mg/kg body weight curcumin suspended in olive oil (20 mg/ml) at various times prior to and after injecting LPS. The mice were fed with curcumin 4 hrs and 2 hrs prior to, simultaneously and 4 hrs, 16 hrs, 24 hrs, 48 hrs and 72 hrs after injecting LPS. Following this, the mice were observed every 2-3 hours after LPS injection with respect to septic shock symptoms such as fever, lethargy, diarrhea, watery eyes and survival.
Intraperitoneal injection of high doses of LPS (40 mg/kg) induced lethal endotoxin shock in mice. […] The death occurred within 24-48 hrs after receiving LPS. To test whether curcumin protects mice injected with LPS from septic shock, we treated mice with varying doses of curcumin 4 hrs and 2 hrs prior to, simultaneously and 4 hrs, 16 hrs, 24 hrs, 48hrs and 72 hrs after injecting LPS. […] Overall, severity of the septic shock symptoms in treated group was much less in comparison with control groups (as shown in Table 2). The mice start recovering within 48 to 72 hrs. Most importantly, 70% of the mice treated with 40 mg/kg to 60 mg/kg curcumin survived from death (FIG. 1).

## COc1cc(/C=C/C(=O)CC(=O)/C=C/c2ccc(O)c(OC)c2)ccc1O [curcumin, diferuloylmethane]
[1]
  extravasation of neutrophils in the liver versus untreated mice: much reduced
[2]; curcumin only simultaneously with and after LPS (3, 6, 9, 24, 42 hrs)
  survival of recovered mice on repeated LPS injection: all the animals survived; also recorded: all survived death
[2]; curcumin only simultaneously with and after LPS
  severity of septic shock symptoms in recovered mice on repeated LPS injection: significant reduction in severity of septic shock symptoms
[3]; 10 μM to 40 μM curcumin for 1 hr, no LPS
  adhesion of neutrophils to unstimulated endothelial monolayers: did not affect
[3]; curcumin 40 μM for 1 hr, then LPS 1 μg/ml for 6 hrs, concentration dependent over 10 to 40 μM
  inhibition of neutrophil adhesion to LPS stimulated endothelial cells: almost complete inhibition
[4]; 40 mg/kg to 60 mg/kg curcumin orally, LPS 40 mg/kg i.p., FIG. 1
  mice survived from death: 70%
[4]; curcumin 20 mg/kg body weight orally
  Percentage Survival: 0%
[4]; curcumin 40 mg/kg body weight orally
  Percentage Survival: 70%
[4]; curcumin 60 mg/kg body weight orally
  Percentage Survival: 70%
[4]; curcumin treated mice, LPS 40 mg/kg i.p., lethargy, watery eyes, diarrhea
  severity of the septic shock symptoms versus control groups: much less
[4]; low dose, LPS 40 mg/kg i.p.
  protection of mice by low dose of curcumin: not able to protect the mice
